Source: US7598244B2, “[1,2,4]triazolo[1,5,a]pyrimidin-2-ylurea derivative and use thereof” (Nippon Kayaku Kabushiki Kaisha, priority 2003, dated 2009)
Where two headings read alike, the source gives them in different places.

Assays:
[1] = test system: MHC class I molecules of human peripheral blood-derived dendritic cells; test: Effect on expression of MHC class I molecules from human peripheral blood-derived dendritic cells; format: cell-based; details: dendritic cells matured with TNF-α, 3 days; read-out: EC50 (reduction of 50% of the number of cells wherein MHC class I molecules were highly expressed)
From the text: Effect on Expression of MHC Class I Molecules from Human Peripheral Blood-Derived Dendritic Cells
Monocytes were isolated from human peripheral blood by the specific gravity centrifugation method. Thereafter, using mouse anti-human CD14 antibody-binding microbeads and a magnetic cell separation system (Miltenyi Biotec), CD14 positive cells were separated from the peripheral blood monocytes. The separated CD14 positive cells were suspended in an RPMI 1640 medium containing 10% FBS, and the suspension was then inoculated in a 6-well plate, resulting in a concentration of 1.0×10^6 cells/well. It was cultured at 37° C. for 20 minutes in an incubator containing 5% carbon dioxide. […] Thereafter, RPMI 1640 containing a 500 U/ml human recombinant […] (hereinafter referred to as GM-CSF; Anapure Bioscientific), 50 ng/ml human recombinant interleukin 4 (hereinafter referred to as IL-4; Pepro Tech), and 10% FBS, was added to the remaining suspension at a concentration of 2 ml/well. The obtained mixture was then cultured at 37° C. in an incubator containing 5% carbon dioxide. When adhesive CD14 positive cells are cultured in the presence of GM-CSF and IL-4, the CD14 positive cells were differentiated into non-adhesive immature dendritic cells. After the cells had been cultured for 7 days, non-adhesive cells were recovered to obtain immature dendritic cells. Using a 6-well plate, the immature dendritic cells (2.5×10^5 cells/well) were cultured in RPMI 1640 containing a 100 U/ml human recombinant tumor necrosis factor-α (hereinafter referred to as TNF-a; Pepro Tech), a test compound, and 10% FBS, at 37° C. for 3 days in an incubator containing 5% carbon dioxide. The dendritic cells became mature as a result of the presence of TNF-α, but in the present test, a test compound was allowed to simultaneously act on the cells. The mature dendritic cells were then stained with fluoroisothiocyanate-labeled mouse anti-human MHC class I monoclonal antibody (an antibody generated from the cell line W6/32 (ATCC No. CRL 1991)). The rate of the number of cells wherein MHC class I molecules were highly expressed to the total number of cells was measured by flow cytometry. The reduction rate of the number of cells wherein MHC class I molecules were highly expressed was calculated using the following formula (2), and the concentrations of test compounds necessary for reduction of 50% (EC50 values) were obtained.
[formula] • Eexp: (The number of cells, wherein MHC class I molecules are highly expressed, in cultured cells containing test compound)/(the total number of cells) • Cexp: (The number of cells, wherein MHC class I molecules are highly expressed, in cultured cells containing no test compounds)/(the total number of cells)

[2] = test system: BALB/c mice; test: Effect on mouse plaque forming cells (PFCs) to sheep erythrocytes; format: in vivo; details: Intraperitoneal, 25 mg/kg/single administration, twice a day for 4 days
Protocol: Effect on Mouse Plaque Forming Cells (PFCs)
Sheep erythrocytes (Nippon Seibutsu Zairyo Center, Co., Ltd.) were intraperitoneally administered to each of BALB/c mice (Charles River Japan, Inc.; female; 8-week-old) at an amount of 1.0×10^8 cells. Thereafter, a test compound was administered thereto twice a day for 4 days after the first administration (only once on the first day) (n=4). On the day subsequent to completion of the administration of the test compound, splenic cells were prepared from the mouse, and the number of PFCs to the sheep erythrocytes was counted by the method of Cunninham (Cunninham, A. J. et al., Immunology, vol. 14, p. 599 (1968)). The number of PFCs per number of splenic cells of 1.0×10^6 was obtained. The reduction rate of the number of PFC in the mouse to which the test compound had been administered, to the number of PFCs in a control mouse to which the test compound had not been administered but only a solvent had been administered, was calculated using the following formula (4).
[formula] • Eexp: The number of PFCs per 1×10^6 splenic cells of mouse to which test compound was administered • Cexp: The number of PFCs per 1×10^6 splenic cells of mouse to which solvent was administered

[3] = test system: human dendritic cells cultured with human allogenic T cells; test: Effect on the ability of human dendritic cells to induce the growth of allogenic T cells ([3H]-thymidine incorporation); format: cell-based; details: dendritic cells treated 3 days with test compound and TNF-α, then 5 days with allogenic T cells, read-out: IC50 (inhibition of DNA synthesis of lymphocytes)
Protocol: Effect on the Ability of Human Dendritic Cells to Induce the Growth of Allogenic T Cells
Immature dendritic cells were cultured with a test compound and TNF-α for 3 days by the same method as that described in Test Example 2. The obtained dendritic cells (2.5×10^3 cells/50 μl/well) were cultured together with human allogenic T cells (2.0×10^5 cells/150 μl/well) in a 96-well flat bottom plate at 37° C. for 5 days in an incubator containing 5% carbon dioxide. Thereafter, [^3H]-thymidine (Amersham Pharmacia Biotech) was added thereto at an amount of 1 μCi/10 μl/well, 16 hours before completion of the culture. After completion of the culture, cells were captured on a glass filter using a cell harvester (Skatron Instrument) and then dried. Thereafter, Scintillator ACS-II (Amersham Pharmacia Biotech) was added thereto, and the radioactivity of [^3H]-thymidine incorporated into the cells were then measured using a liquid scintillation counter. The inhibition rate of the DNA synthesis of lymphocytes was calculated using the following formula (3). Thereafter, the concentration of a test compound necessary for inhibition of 50% (IC50 value) was obtained.
[formula] • Eexp: The amount of [^3H]-thymidine incorporated into cultured cells containing test compound • Cexp: The amount of [^3H]-thymidine incorporated into cultured cells containing no test compounds

[4] = test system: MHC class I molecules of T1 cells (human lymphoma cell line 174×CEM.); test: Effect on expression of MHC class I from T1 cells (flow cytometry, MFI); format: cell-based; details: 3 days culture
Outline: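 EC20 is the compound level that lowers MHC class I MFI by 20% relative to compound-free cultures. Read-out was flow cytometry after FITC W6/32 staining.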

[5] = test system: (C57BL/6XB6. C—H2^bml) F1 mice; test: Life-lengthening effect on graft versus host disease (GVHD); format: in vivo, mouse; details: oral, once a day
Protocol: Life-Lengthening Effect on Graft Versus Host Disease (GVHD)
The present test was carried out by modification of the method of Jonathan et al. (Jonathan et al., Blood, p. 93 (1999)). First, 6.0 Gy X-ray was applied to (C57BL/6XB6. C—H2^bml) F1 mice (produced by mating 6XB6.C—H2^bml mice (Jackson Laboratory) with C57BL/6 mice (Charles River Japan); female; 8 to 12-week-old). Thereafter, CD8 positive T cells (1.25×10^6 cells) prepared from the splenic cells of C57BL/6 mice (Charles River Japan; female; 8-week-old) were intravenously injected into the above (C57BL/6XB6. C—H2^bml) F1 mice. From the day before the injection, the test compound having each diluted concentration or 0.5% carboxymethyl cellulose used as a solvent was orally administered to the mice once a day for 7 to 30 consecutive days. The day on which the transplantation was conducted was defined as day 0. Based on the median of the survival days of each group, the prolongation rate of such survival dates was calculated using the following formula (7). Thus, the effect of the test compound on GVHD was analyzed.
[formula] • Eexp: Median of survival days of test compound administration group • Cexp: Median of survival days of solvent administration group

[6] = test system: BALB/c mice; test: Effect on mouse delayed-type hypersensitivity reaction (DTH reaction), swelling of the sole; format: in vivo; details: Intraperitoneal, administration period 7 days, 100 mg/kg/single administration
Protocol: Effect on Mouse Delayed-Type Hypersensitivity Reaction (DTH Reaction)
1.0×10^5 sheep erythrocytes (Nippon Seibutsu Zairyo Center, Co., Ltd.) were administered to each of BALB/c mice (Charles River Japan, Inc.; female; 8-week-old) by intravenous injection for sensitization. From the day of administration of the sheep erythrocytes, a test compound was administered to the mouse. As a control, a 0.5% carboxymethyl cellulose (CMC)-Na solution and a normal saline solution used as solvents were administered to the same type of mouse via oral administration or intraperitoneal administration. Five days after the antigen sensitization, 1.0×10^8 sheep erythrocytes were subcutaneously injected into the sole of the mouse. 24 hours later, the thickness of the sole was measured. The value obtained by subtracting the mean value of the thicknesses of the soles of mice, to which a normal saline solution had been administered instead of the sheep erythrocytes, from the above measurement value, was defined as swelling of the sole generated as a result of the DTH reaction. The inhibition rate of the swelling of the sole caused by the DTH reaction was calculated using the following formula (5). The amount of the test compound necessary for inhibition of 50% (ED50 value) was obtained as the activity of the test compound to inhibit the DTH reaction. It is to be noted that cyclosporin A was used as a positive control.
[formula] • Eexp: Swelling of sole of mouse to which test compound was administered • Cexp: Swelling of sole of mouse to which solvent was administered

[7] = test system: mouse splenic cells; test: Inhibitory action on blastogenesis of mouse splenic cells ([3H]-thymidine incorporation); format: cell-based; details: 72 hours
Protocol: Inhibitory Action on Blastogenesis of Mouse Splenic Cells
The spleen was excised from each of BALB/c mice (Charles River Japan; female; 10-week-old), and it was allowed to pass through a mesh to obtain a single cell suspension. This single cell suspension was prepared to be 1.0×10^6 cells/ml. Thereafter, 200 μl of the suspension was fractionated into each well of a 96-well plate. Thereafter, as blastogenic stimulation, 5 μg/ml concanavalin A (Pharmacia) or 25 μg/ml Escherichia coli-derived lipopolysaccharide (DIFCO) was added to the well, and then, a solution containing a test compound with each different concentration was further added thereto at an amount of 20 μl/well. The obtained mixture was cultured at 37° C. for 72 hours in an incubator containing 5% carbon dioxide. Thereafter, a 1 μCi/10 μl/well [^3H]-thymidine solution was added thereto 64 hours after initiation of the culture. After completion of the culture (72 hours later), the cells were captured on a filter using a cell harvester, and they were then dried. Thereafter, scintillator was added thereto, and the radioactivity of [^3H]-thymidine incorporated into the cells was then measured using a liquid scintillation counter. The inhibition rate of the DNA synthesis was calculated using the aforementioned formula (3). Thereafter, the concentration of a test compound necessary for inhibition of 50% (IC50 value) was obtained.

[8] = 100 mg/kg/single administration

Question: With `COc1ccc(-c2ccnc3nc(NC(=O)N[C@H]4CC[C@H](O)CC4)nn23)cc1` [Example 037] as the molecule, how does the EC50 [1] read?
Answer: 200 nM

Question: And the “Reduction rate (%) of number of PFCs” value [2]?
Answer: 31.2%

Question: What about the IC50 ([3]; Homo sapiens) of the same molecule?
Answer: 1360 nM

Question: And the “EC20 (concentration necessary for suppressing 20% of the expression level of MHC class I molecules)” value [4]?
Answer: 200 nM

Question: Which results are given for `COc1ccc(-c2ccnc3nc(NC(=O)NC(C)CCC(C)(C)O)nn23)cc1` (racemic) [Example 317, (±)-1-(4-hydroxy-1,4-dimethylpentyl)-3-[7-(4-methoxyphenyl)-[1,2,4]triazolo[1,5-a]pyrimidin-2-yl]urea]?
Answer: EC20 (concentration necessary for suppressing 20% of the expression level of MHC class I molecules) [4]: 60 nM; Lengthening rate of survival days (%) ([5]; 30 mg/kg/single administration): 24%

Question: How did the “Inhibition rate (%) of swelling of the sole” value [6] turn out when `COc1ccc(-c2ccnc3nc(NC(=O)N[C@H](C(=O)NCCN4CCCCC4)C(C)C)nn23)cc1.Cl` [Example 135] was run?
Answer: 40.2%

Question: What about the “EC20 (concentration necessary for suppressing 20% of the expression level of MHC class I molecules)” value [4] of the same molecule?
Answer: 810 nM

Question: How did the “EC20 (concentration necessary for suppressing 20% of the expression level of MHC class I molecules)” value [4] turn out when `CCOCCC(C)NC(=O)Nc1nc2nccc(-c3ccc(OC)cc3)n2n1` (stereo not shown) [Example 274] was run?
Answer: 110 nM

Question: What about the “Lengthening rate of survival days (%)” value [5, 8] of the same molecule?
Answer: 55%

Question: How did the “EC20 (concentration necessary for suppressing 20% of the expression level of MHC class I molecules)” value [4] turn out when `COc1cccc([C@H](C)NC(=O)Nc2nc3nccc(-c4ccc5c(c4)OCO5)n3n2)c1` [Example 300, (S)-1-[1-(3-methoxyphenyl)ethyl]-3-[7-(3,4-methylenedioxyphenyl)-[1,2,4]triazolo[1,5-a]pyrimidin-2-yl]urea] was run?
Answer: 19 nM

Question: And the “Lengthening rate of survival days (%)” value ([5]; 10 mg/kg/single administration)?
Answer: 100%

Question: How did the IC50 ([7]; 5 μg/ml concanavalin A, read-out: Lymphocyte blastogenesis IC50 (μM), ConA stimulation) turn out when `COc1ccc(-c2ccnc3nc(NC(=O)N[C@@H](C)c4cccc(OC)c4)nn23)cc1` [Example 132] was run?
Answer: 0.08 µM

Question: What about the IC50 ([7]; 25 μg/ml Escherichia coli-derived lipopolysaccharide, read-out: Lymphocyte blastogenesis IC50 (μM), LPS stimulation) of the same molecule?
Answer: 0.06 µM

Question: And the IC50 [3]?
Answer: 625 nM

Question: What about the “EC20 (concentration necessary for suppressing 20% of the expression level of MHC class I molecules)” value [4] of the same molecule?
Answer: 39 nM

Question: What about the “Lengthening rate of survival days (%)” value [5, 8] of the same molecule?
Answer: 200%

Question: With `COc1ccc(-c2ccnc3nc(NC(=O)NC(C)CCCC(C)(C)O)nn23)cc1` (racemic) [Example 219] as the molecule, how does the “EC20 (concentration necessary for suppressing 20% of the expression level of MHC class I molecules)” value [4] read?
Answer: 50 nM

Question: What about the “Lengthening rate of survival days (%)” value ([5]; 25 mg/kg/single administration) of the same molecule?
Answer: 200%
